Read-outs that look alike come from different tables or passages of the source.
Experiments:
SARS-CoV2 (enzyme) = SARS-CoV2 (enzyme) (Severe acute respiratory syndrome coronavirus 2 (2019-nCoV) (SARS-CoV-2), UniProt P0DTD1); assay: Inhibitory activity against SARS-CoV2 enzyme (Table 1); type: biochemical
FIPV = assay: Inhibitory activity against FIPV in cell culture (Table 1); type: cell-based; settings: Alphacoronavirus 1, cell culture
SARS-CoV-2 3CLpro = SARS-CoV-2 3CLpro (Severe acute respiratory syndrome coronavirus 2 (2019-nCoV) (SARS-CoV-2), UniProt P0DTD1); assay: biochemical; type: biochemical
[1] = Nonspecific cytotoxic effects (CytoTox 96 assay); type: cell-based; settings: African green monkey (Vero E6) and cat (CRFK); Vero E6 and CRFK cells, 72 hr
Protocol: (§1) Nonspecific cytotoxic effects. […] Confluent cells grown in 96-well plates were incubated with various concentrations (1 to 100 μM) of each compound for 72 hr. Cell cytotoxicity was measured by a CytoTox 96 nonradioactive cytotoxicity assay kit (Promega, Madison, WI), and the CC50 values were calculated using a variable slope by GraphPad Prism software (Table 2).

SARS-CoV-2 [2] = type: in vivo, K18-hACE2 mice; settings: for lung edema average score: score 0-4
SARS-CoV-2 [3] = assay: Cell-based assay for antiviral activity in A549-ACE2 cells; settings: Severe acute respiratory syndrome coronavirus 2, mean ± standard deviation
SARS-CoV-2 [4] = assay: Cell-based assay for antiviral activity, plaque reduction in Vero E6 cells; settings: mean ± standard deviation
SARS-CoV-2 [5] = settings: cited from earlier work
Vero E6 and CRFK cells = assay: Nonspecific cytotoxic effects (CytoTox 96 assay); type: cell-based
Protocol: as §1

[6] = Severe acute respiratory syndrome coronavirus 2, Vero C1008, read-out: EC50 (μM) VeroE6, VeroE6 cells
[7] = read-out: EC50 (μM) VeroE6, VeroE6 cells

`[2H]C([2H])(OC(=O)N[C@@H](CC(C)C)C(=O)N[C@@H](C[C@@H]1CCNC1=O)C(OC(C)=O)S(=O)(=O)[O-])c1ccccc1.[Na+]` (stereo partly drawn) [Prodrug of GC1129-No1] showed an EC50 (SARS-CoV2 (enzyme)) of 0.7 µM and an EC50 (FIPV) of 0.06 µM.
Compound `CC(C)C[C@H](NC(=O)OCc1ccccc1)C(=O)N[C@H](C=O)C[C@@H]1CCNC1=O` [Parental aldehyde, reference compound] has an EC50 (FIPV) of 0.05 µM.
For `[2H]c1c([2H])c([2H])c(C([2H])([2H])OC(=O)N[C@@H](CC(C)C)C(=O)N[C@@H](C[C@@H]2CCNC2=O)C(OC(=O)CCCCC)S(=O)(=O)[O-])c([2H])c1[2H].[Na+]` (stereo partly drawn) [Compound 11, Sodium (5S,8S)-5-isobutyl-3,6,11-trioxo-8-(((S)-2-oxopyrrolidin-3-yl)methyl)-1-(phenyl-d5)-2,10-dioxa-4,7-diazahexadecane-9-sulfonate-1,1-d2], the IC50 (SARS-CoV-2 3CLpro) was 770 ± 120 nM, the “potency (IC50) in the enzyme assay compared to aldehyde and bisulfite counterparts” value (SARS-CoV-2 3CLpro) was “significantly increased IC50 values” and the CC50 at 72 h [1] was > 100000 nM.
With `[2H]C([2H])(OC(=O)N[C@@H](CC(C)C)C(=O)N[C@@H](C[C@@H]1CCNC1=O)C(O)S(=O)(=O)[O-])c1ccccc1.[Na+]` (stereo partly drawn) [Compound 2, Sodium (2S)-1-hydroxy-2-((S)-4-methyl-2-(((phenylmethoxy-d2)carbonyl)amino)pentan-amido)-3-((S)-2-oxopyrrolidin-3-yl)propane-1-sulfonate] the “pathological changes and infectious virus in the brains” value (SARS-CoV-2 [2]; 2 and 5 dpi, detection limit 200 PFU/g) was “neither pathological changes nor infectious virus was detected”, the lung perivascular infiltrates (SARS-CoV-2 [2]; 2 dpi) was “Mild perivascular infiltrates” and the “lung edema average score” value (SARS-CoV-2 [2]; 2 dpi) was 0. For the same compound, the “lung virus titers versus vehicle” value (SARS-CoV-2 [2]; 2 dpi, second experiment) was “statistically significant reduction of virus titers”, the “lung edema average score” value (SARS-CoV-2 [2]; 5 dpi) was 2 and the survival (SARS-CoV-2 [2]; first experiment: 2×10^3 pfu per mouse, 100 mg/kg/day once a day from 1 dpi, 15 dpi) was “All compound 2-treated mice gradually gained body weight and were alive at the end of the study”. The body weight loss (SARS-CoV-2 [2]; first experiment: 2×10^3 pfu per mouse, 100 mg/kg/day, 5-10 dpi, versus vehicle) was “loss was less severe compared to vehicle-treated mice”, the “lung perivascular infiltrations average score” value (SARS-CoV-2 [2]; mouse, in vivo) was 2 and the EC50 (SARS-CoV-2 [3]) was 0.069 ± 0.01 µM. The EC50 (SARS-CoV-2 [4]; [6]) was 0.068 to 0.086 µM, the EC50 (SARS-CoV-2 [4]; [7]) was 0.086 ± 0.02 µM and the CC50 at 72 h [1] was > 100000 nM.
Work on `[2H]C([2H])(OC(=O)N[C@@H](CC(C)C)C(=O)N[C@H](C=O)C[C@@H]1CCNC1=O)c1ccccc1` [Deuterated GC373-No2] yielded an EC50 (FIPV) of 0.05 µM.
`[2H]c1c([2H])c([2H])c(C([2H])([2H])OC(=O)N[C@@H](CC(C)C)C(=O)N[C@H](C=O)C[C@@H]2CCNC2=O)c([2H])c1[2H]` [Deuterated GC373-No1] gave an EC50 (FIPV) of 0.05 µM.
For `CC(C)C[C@H](NC(=O)OCc1ccccc1)C(=O)N[C@@H](C[C@@H]1CCNC1=O)C(O)S(=O)(=O)[O-].[Na+]` (stereo partly drawn) [GC376, reference compound], the survival (SARS-CoV-2 [5]; given three hours after virus inoculation that led to 100% fatality, versus vehicle) is listed as “no difference in survival”, the “viral load and inflammation in the lungs” value (SARS-CoV-2 [5]; given three hours after virus inoculation, versus vehicle-treated controls) is listed as “reduced viral load and inflammation” and the EC50 (SARS-CoV-2 [4]; [6]) is listed as 0.23 ± 0.01 µM. For the same compound, the cytotoxicity (Vero E6 and CRFK cells; up to 100 μM) was “did not show any cytotoxicity” and the EC50 (FIPV) was 0.05 µM.
For `[2H]C([2H])(OC(=O)N[C@@H](CC(C)C)C(=O)N[C@@H](C[C@@H]1CCNC1=O)C(OC(=O)CCCCC)S(=O)(=O)[O-])c1ccccc1.[Na+]` (stereo partly drawn) [Compound 4, Sodium (5S,8S)-5-isobutyl-3,6,11-trioxo-8-(((S)-2-oxopyrrolidin-3-yl)methyl)-1-phenyl-2,10-dioxa-4,7-diazahexadecane-9-sulfonate-1,1-d2], the IC50 (SARS-CoV-2 3CLpro) was 800 ± 100 nM, the “potency (IC50) in the enzyme assay compared to aldehyde and bisulfite counterparts” value (SARS-CoV-2 3CLpro) was “significantly increased IC50 values” and the CC50 at 72 h [1] was > 100000 nM.
For `[2H]c1c([2H])c([2H])c(COC(=O)N[C@@H](CC(C)C)C(=O)N[C@@H](C[C@@H]2CCNC2=O)C(OC(=O)CCCCC)S(=O)(=O)[O-])c([2H])c1[2H].[Na+]` (stereo partly drawn) [Compound 8, Sodium (5S,8S)-5-isobutyl-3,6,11-trioxo-8-(((S)-2-oxopyrrolidin-3-yl)methyl)-1-(phenyl-d5)-2,10-dioxa-4,7-diazahexadecane-9-sulfonate], the IC50 (SARS-CoV-2 3CLpro) was 680 ± 350 nM, the “potency (IC50) in the enzyme assay compared to aldehyde and bisulfite counterparts” value (SARS-CoV-2 3CLpro) was “significantly increased IC50 values” and the CC50 at 72 h [1] was > 100000 nM.
In the case of `[2H]C([2H])(OC(=O)N[C@@H](CC(C)C)C(=O)N[C@H](C=O)C[C@@H]1CCNC1=O)c1ccccc1` [Compound 1, Phenylmethyl-d2 ((S)-4-methyl-1-oxo-1-(((S)-1-oxo-3-((S)-2-oxopyrrolidin-3-yl)propan-2-yl)amino)pentan-2-yl)carbamate], the EC50 (SARS-CoV-2 [3]) is reported as 0.086 ± 0.01 µM, the EC50 (SARS-CoV-2 [4]; [6]) is reported as 0.068 to 0.086 µM and the EC50 (SARS-CoV-2 [4]; [7]) is reported as 0.068 ± 0.01 µM. The CC50 at 72 h [1] was > 100000 nM.
`[2H]c1c([2H])c([2H])c(COC(=O)N[C@@H](CC(C)C)C(=O)N[C@@H](C[C@@H]2CCNC2=O)C(O)S(=O)(=O)[O-])c([2H])c1[2H].[Na+]` (stereo partly drawn) [Compound 7, Sodium (2S)-1-hydroxy-2-((S)-4-methyl-2-((((phenyl-d5)methoxy)carbonyl)amino)pentanamido)-3-((S)-2-oxopyrrolidin-3-yl)propane-1-sulfonate] gave an EC50 (SARS-CoV-2 [3]) of 0.1 ± 0.01 µM, an EC50 (SARS-CoV-2 [4]; [6]) of 0.068 to 0.086 µM and an EC50 (SARS-CoV-2 [4]; [7]) of 0.079 ± 0.01 µM. The CC50 at 72 h [1] was > 100000 nM.
For `[2H]c1c([2H])c([2H])c(COC(=O)N[C@@H](CC(C)C)C(=O)N[C@H](C=O)C[C@@H]2CCNC2=O)c([2H])c1[2H]` [Compound 6, (Phenyl-d5)methyl ((S)-4-methyl-1-oxo-1-(((S)-1-oxo-3-((S)-2-oxopyrrolidin-3-yl)propan-2-yl)amino)pentan-2-yl)carbamate], the EC50 (SARS-CoV-2 [3]) was 0.075 ± 0.01 µM, the EC50 (SARS-CoV-2 [4]; [6]) was 0.068 to 0.086 µM and the EC50 (SARS-CoV-2 [4]; [7]) was 0.077 ± 0.01 µM. For the same compound, the CC50 at 72 h [1] was > 100000 nM.
With `[2H]C([2H])(OC(=O)N[C@@H](CC(C)C)C(=O)N[C@@H](C[C@@H]1CCNC1=O)C(=O)C(=O)NCc1ccccc1)c1ccccc1` [Compound 5, Phenylmethyl-d2 ((S)-1-(((S)-4-(benzylamino)-3,4-dioxo-1-((S)-2-oxopyrrolidin-3-yl)butan-2-yl)amino)-4-methyl-1-oxopentan-2-yl)carbamate] the IC50 (SARS-CoV-2 3CLpro) was 1310 ± 550 nM, the “potency (IC50) in the enzyme assay compared to aldehyde and bisulfite counterparts” value (SARS-CoV-2 3CLpro) was “markedly decreased potency” and the CC50 at 72 h [1] was > 100000 nM.
In the case of `[2H]c1c([2H])c([2H])c(C([2H])([2H])OC(=O)N[C@@H](CC(C)C)C(=O)N[C@H](C=O)C[C@@H]2CCNC2=O)c([2H])c1[2H]` [Compound 9, (Phenyl-d5)methyl-d2 ((S)-4-methyl-1-oxo-1-(((S)-1-oxo-3-((S)-2-oxopyrrolidin-3-yl)propan-2-yl)amino)pentan-2-yl)carbamate], the CC50 at 72 h [1] is reported as > 100000 nM.
In the case of `[2H]C([2H])(OC(=O)N[C@@H](CC(C)C)C(=O)N[C@@H](C[C@@H]1CCNC1=O)C(OC(C)=O)S(=O)(=O)[O-])c1ccccc1.[Na+]` (stereo partly drawn) [Compound 3, Sodium (5S,8S)-5-isobutyl-3,6,11-trioxo-8-(((S)-2-oxopyrrolidin-3-yl)methyl)-1-phenyl-2,10-dioxa-4,7-diazadodecane-9-sulfonate-1,1-d2], the IC50 (SARS-CoV-2 3CLpro) is reported as 710 ± 60 nM, the “potency (IC50) in the enzyme assay compared to aldehyde and bisulfite counterparts” value (SARS-CoV-2 3CLpro) is reported as “significantly increased IC50 values” and the CC50 at 72 h [1] is reported as > 100000 nM.
`[2H]C([2H])(OC(=O)N[C@@H](CC(C)C)C(=O)N[C@@H](C[C@@H]1CCNC1=O)C(OC(=O)CCCCC)S(=O)(=O)[O-])c1ccccc1.[Na+]` (stereo partly drawn) [Prodrug of GC1129-No2] gave an EC50 (SARS-CoV2 (enzyme)) of 0.8 µM and an EC50 (FIPV) of 0.06 µM.
For `CC(C)C[C@H](NC(=O)OCc1ccccc1)C(=O)N[C@@H](C[C@@H]1CCNC1=O)C(O)S(=O)(=O)O` (stereo partly drawn) [Compound 10, Sodium(2S)-1-hydroxy-2-((S)-4-methyl-2-((((phenyl-d5)methoxy-d2)carbonyl)amino)pentanamido)-3-((S)-2-oxopyrrolidin-3-yl)propane-1-sulfonate], the CC50 (Vero E6 and CRFK cells; Vero E6 and CRFK cells, 72 hr) was > 100000 nM.
`[2H]c1c([2H])c([2H])c(C([2H])([2H])OC(=O)N[C@@H](CC(C)C)C(=O)N[C@@H](C[C@@H]2CCNC2=O)C(O)S(=O)(=O)[O-])c([2H])c1[2H].[Na+]` (stereo in doubt) [Deuterated GC376-No1] showed an EC50 (FIPV) of 0.08 µM.

— patent US12180156B2 (priority 2020, dated 2024)
